pIC50: −log10 of the molar value.
Assays:
[1] = molecular target: Cyclin-dependent kinase 2/cyclin E1 (Homo sapiens, UniProt P24941); assay: Inhibition of CDK2/cyclin E; format: protein-complex assay
[2] = molecular target: Cyclin-dependent kinase 1/cyclin B1 (Homo sapiens, UniProt P06493); assay: Inhibition of CDK1/cyclin B; format: protein-complex assay
[3] = molecular target: Cyclin-dependent kinase 4/cyclin D1 (Homo sapiens, UniProt P11802); assay: Inhibition of CDK4/cyclin D1; format: protein-complex assay
[4] = molecular target: Cyclin-dependent kinase 7/ cyclin H (Homo sapiens, UniProt P50613); assay: Inhibition of CDK7/cyclin H; format: protein-complex assay
[5] = Inhibition of PKA
[6] = molecular target: Mitogen-activated protein kinase 1 (Homo sapiens, UniProt P28482); assay: Inhibition of ERK2
[7] = system: A2780; assay: Growth inhibition of cisplatin-susceptible human A2780 cells after 96 hrs by sulforhodamine B assay; format: functional; conditions: A2780, 96 h
[8] = system: A2780; assay: Growth inhibition of cisplatin-resistant human A2780 cells after 96 hrs by sulforhodamine B assay; format: functional; conditions: A2780, 96 h
[9] = system: CH1; assay: Growth inhibition of doxorubicin-susceptible human CH1 cells after 96 hrs by sulforhodamine B assay; format: functional; conditions: CH1, 96 h
[10] = system: CH1; assay: Growth inhibition of doxorubicin-resistant human CH1 cells after 96 hrs by sulforhodamine B assay; format: functional; conditions: CH1, 96 h
[11] = system: HCT-116; assay: Growth inhibition of human HCT116 cells after 96 hrs by sulforhodamine B assay; format: functional; conditions: HCT-116, 96 h
[12] = system: HT-29; assay: Growth inhibition of human HT-29 cells after 96 hrs by sulforhodamine B assay; format: functional; conditions: HT-29, 96 h
[13] = system: KM12; assay: Growth inhibition of human KM12 cells after 96 hrs by sulforhodamine B assay; format: functional; conditions: KM12, 96 h
[14] = Metabolic stability in mouse liver microsomes assessed as compound metabolized at 10 uM after 30 mins by LC-MS analysis; format: ADME, Microsome; conditions: read-out: Activity
[15] = Solubility of the compound in water; format: physicochemical; conditions: water; read-out: solubility

Mitogen-activated protein kinase 1, sequence (P28482 whole entry): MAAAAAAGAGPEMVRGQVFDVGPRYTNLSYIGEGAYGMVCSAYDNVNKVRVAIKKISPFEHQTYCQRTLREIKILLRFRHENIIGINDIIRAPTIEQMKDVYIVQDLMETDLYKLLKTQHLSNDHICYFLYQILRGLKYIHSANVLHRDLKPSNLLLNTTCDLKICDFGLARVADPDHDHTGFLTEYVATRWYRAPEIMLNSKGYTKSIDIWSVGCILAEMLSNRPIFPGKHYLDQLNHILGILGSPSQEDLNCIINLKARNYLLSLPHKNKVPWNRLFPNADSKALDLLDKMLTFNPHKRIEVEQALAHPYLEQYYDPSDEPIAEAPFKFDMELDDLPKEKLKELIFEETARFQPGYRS
Cyclin-dependent kinase 7/ cyclin H, sequence (P51946 whole entry): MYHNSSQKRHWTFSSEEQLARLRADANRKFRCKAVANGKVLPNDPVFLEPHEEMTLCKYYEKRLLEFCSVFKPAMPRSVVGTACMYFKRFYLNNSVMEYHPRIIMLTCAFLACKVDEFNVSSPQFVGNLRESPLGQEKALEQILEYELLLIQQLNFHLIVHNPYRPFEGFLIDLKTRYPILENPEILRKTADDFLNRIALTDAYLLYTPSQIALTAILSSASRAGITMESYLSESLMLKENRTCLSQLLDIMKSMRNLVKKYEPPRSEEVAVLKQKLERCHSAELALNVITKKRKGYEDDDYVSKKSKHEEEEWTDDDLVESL
Cyclin-dependent kinase 7/ cyclin H, sequence (P50613 whole entry): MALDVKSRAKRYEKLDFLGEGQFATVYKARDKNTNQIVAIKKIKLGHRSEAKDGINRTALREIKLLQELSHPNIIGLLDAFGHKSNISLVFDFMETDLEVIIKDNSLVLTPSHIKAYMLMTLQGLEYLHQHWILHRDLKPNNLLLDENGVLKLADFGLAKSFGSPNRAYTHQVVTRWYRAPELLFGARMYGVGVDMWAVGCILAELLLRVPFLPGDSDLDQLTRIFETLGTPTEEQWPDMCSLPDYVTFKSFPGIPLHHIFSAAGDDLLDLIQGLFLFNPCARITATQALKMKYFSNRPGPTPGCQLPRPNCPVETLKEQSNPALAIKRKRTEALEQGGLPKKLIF
Cyclin-dependent kinase 1/cyclin B1, sequence (P06493 whole entry): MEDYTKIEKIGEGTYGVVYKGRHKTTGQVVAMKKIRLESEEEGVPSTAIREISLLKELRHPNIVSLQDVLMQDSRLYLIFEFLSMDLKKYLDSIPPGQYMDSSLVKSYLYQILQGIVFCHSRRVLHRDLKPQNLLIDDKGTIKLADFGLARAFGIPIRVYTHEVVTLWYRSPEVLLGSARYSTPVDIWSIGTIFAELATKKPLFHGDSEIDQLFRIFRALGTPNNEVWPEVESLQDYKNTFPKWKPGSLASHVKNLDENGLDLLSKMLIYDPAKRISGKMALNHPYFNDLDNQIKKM
Cyclin-dependent kinase 1/cyclin B1, sequence (P14635 whole entry, further chain): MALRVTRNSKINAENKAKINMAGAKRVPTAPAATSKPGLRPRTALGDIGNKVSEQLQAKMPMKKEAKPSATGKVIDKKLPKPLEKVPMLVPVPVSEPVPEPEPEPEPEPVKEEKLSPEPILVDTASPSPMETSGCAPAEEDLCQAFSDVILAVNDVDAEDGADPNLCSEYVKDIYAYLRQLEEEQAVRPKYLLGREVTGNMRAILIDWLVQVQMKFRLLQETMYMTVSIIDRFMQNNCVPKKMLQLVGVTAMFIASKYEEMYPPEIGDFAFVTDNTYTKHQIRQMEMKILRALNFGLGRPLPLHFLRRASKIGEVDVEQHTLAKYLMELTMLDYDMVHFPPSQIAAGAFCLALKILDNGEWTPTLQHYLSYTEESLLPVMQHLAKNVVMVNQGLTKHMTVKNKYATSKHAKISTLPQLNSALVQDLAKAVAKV
Cyclin-dependent kinase 4/cyclin D1, sequence (P11802 whole entry): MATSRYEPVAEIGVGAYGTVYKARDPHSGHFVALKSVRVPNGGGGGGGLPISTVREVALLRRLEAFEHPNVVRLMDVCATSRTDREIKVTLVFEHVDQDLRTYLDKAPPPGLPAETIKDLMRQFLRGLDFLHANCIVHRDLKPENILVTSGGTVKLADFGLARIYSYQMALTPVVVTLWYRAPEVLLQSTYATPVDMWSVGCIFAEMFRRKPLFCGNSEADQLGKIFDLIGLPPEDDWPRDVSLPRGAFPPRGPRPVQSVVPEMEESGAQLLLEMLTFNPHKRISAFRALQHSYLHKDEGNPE
Cyclin-dependent kinase 4/cyclin D1, sequence (P24385 whole entry, further chain): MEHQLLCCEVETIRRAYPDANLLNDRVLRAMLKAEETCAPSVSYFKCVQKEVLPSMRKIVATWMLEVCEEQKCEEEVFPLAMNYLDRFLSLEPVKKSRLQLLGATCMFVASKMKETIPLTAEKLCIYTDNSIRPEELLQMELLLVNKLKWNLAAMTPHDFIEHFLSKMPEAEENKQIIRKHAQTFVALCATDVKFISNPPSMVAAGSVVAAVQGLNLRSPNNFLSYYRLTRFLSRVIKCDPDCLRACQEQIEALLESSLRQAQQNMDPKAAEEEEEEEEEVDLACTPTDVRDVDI

Structure (SMILES)	pIC50 [1]	pIC50 [2]	pIC50 [3]	pIC50 [4]	pIC50 [5]	pIC50 [6]	GI50 [7] [µM]	GI50 [8] [µM]	GI50 [9] [µM]	GI50 [10] [µM]	GI50 [11] [µM]	GI50 [12] [µM]	GI50 [13] [µM]	metabolised at 0.5 h, 10 µM [14] [%]	solubility [15] [mg/mL]
CC[C@H](Nc1nc(NCc2ccccn2)c2ncn(C(C)C)c2n1)C(C)(C)O	6.51	4.62	4.70	5.37	< 3.70	< 3.70	19	44	42	26	32	> 50	38	53	
CC[C@H](Nc1nc(NCc2cccnc2)c2ncn(C(C)C)c2n1)[C@@H](C)O.O=C(O)C(F)(F)F															> 25
CC[C@H](CO)Nc1nc(NCc2cccnc2)c2ncn(C(C)C)c2n1			4.70	6.74	< 4.30	4.62	5.2	6.6	4.8	16.5	4.5	5.8	5.5	54	
CC[C@@H](Nc1nc(NCc2ccccn2)c2ncn(C(C)C)c2n1)C(C)O (mixture of isomers)	6.28	4.41	4.32	6.26	< 3.70	4.14	15	27	20	20	18	42	37	97	
CC[C@@H](Nc1nc(NCc2cccnc2)c2ncn(C(C)C)c2n1)C(C)O (mixture of isomers)		5.31			< 3.70	4.64	3.1	4.4	4.5	5.2	2.5	4.7	4.7	10	
CCC(O)[C@@H](CC)Nc1nc(NCc2cccnc2)c2ncn(C(C)C)c2n1 (mixture of isomers)	6.66	4.92	4.60	5.96	< 3.70		6.2	19	18	14.5	10	20	13.5	30	
CC[C@@H](Nc1nc(NCc2cccnc2)c2ncn(C(C)C)c2n1)C(O)C(C)C (mixture of isomers)	6.16	4.70	4.68	5.66	< 3.70		23	37	30	25	25	32	31	36	
CC[C@@H](Nc1nc(NCc2cccnc2)c2ncn(C(C)C)c2n1)C(O)C(C)(C)C (mixture of isomers)	6.00	4.64	4.62	5.80	< 3.70		18	23	23	23	20	22	19	46	
CC[C@@H](Nc1nc(NCc2ccccc2)c2ncn(C(C)C)c2n1)C(C)O (mixture of isomers)			4.64	6.41	< 4.30	4.37	6.4	3.8	5	4.6	5.4	18	5.4	91	
CC[C@H](Nc1nc(NCc2ccccn2)c2ncn(C(C)C)c2n1)C(C)O (mixture of isomers)	7.30	5.05	4.74	5.59	< 3.70	4.11	10	17	21	15.5	10	20	23	67	
CC[C@H](Nc1nc(NCc2cccnc2)c2ncn(C(C)C)c2n1)C(C)O (mixture of isomers)		5.66			< 3.70	4.70	0.78	1	0.92	1.5	0.76	1.1	1.15	33	
CCC(O)[C@H](CC)Nc1nc(NCc2cccnc2)c2ncn(C(C)C)c2n1 (mixture of isomers)	6.96	4.89	4.96	5.82	< 3.70		4.3	12.5	11	9.4	5.4	12.5	8.2	27	
CC[C@H](Nc1nc(NCc2cccnc2)c2ncn(C(C)C)c2n1)C(O)C(C)C (mixture of isomers)	5.96	4.66	4.51	5.46	< 3.70		19	26.5	22	20.5	22	26	22	62	
CC[C@H](Nc1nc(NCc2cccnc2)c2ncn(C(C)C)c2n1)C(O)C(C)(C)C (mixture of isomers)	6.41	4.68	4.89	5.46	< 3.70		18	22	23	18.5	24	22	19	50	
CC[C@H](Nc1nc(NCc2ccccc2)c2ncn(C(C)C)c2n1)C(C)O (mixture of isomers)			5.05	6.16	< 4.30	4.54	3.3	3.4	1.75	1.28	1.45	4.9	1.9	67	
CC[C@H](Nc1nc(NCc2ccccc2)c2ncn(C(C)C)c2n1)C(O)C(C)C (mixture of isomers)			4.48	5.52	4.08	4.06	20	23	25	24	24	23	25	76	

— ChEMBL document CHEMBL1921760, “Design, synthesis and biological evaluation of 6-pyridylmethylaminopurines as CDK inhibitors” (Bioorg Med Chem, 2011)
